Measured values: article PMC6269737, “Effect of Honokiol on Cytochrome P450 and UDP-Glucuronosyltransferase Enzyme Activities in Human Liver Microsomes” (Molecules, 2013)

Target: T1, CYP2A6 (Homo sapiens, UniProt P11509)
T1 sequence (P11509 1-494): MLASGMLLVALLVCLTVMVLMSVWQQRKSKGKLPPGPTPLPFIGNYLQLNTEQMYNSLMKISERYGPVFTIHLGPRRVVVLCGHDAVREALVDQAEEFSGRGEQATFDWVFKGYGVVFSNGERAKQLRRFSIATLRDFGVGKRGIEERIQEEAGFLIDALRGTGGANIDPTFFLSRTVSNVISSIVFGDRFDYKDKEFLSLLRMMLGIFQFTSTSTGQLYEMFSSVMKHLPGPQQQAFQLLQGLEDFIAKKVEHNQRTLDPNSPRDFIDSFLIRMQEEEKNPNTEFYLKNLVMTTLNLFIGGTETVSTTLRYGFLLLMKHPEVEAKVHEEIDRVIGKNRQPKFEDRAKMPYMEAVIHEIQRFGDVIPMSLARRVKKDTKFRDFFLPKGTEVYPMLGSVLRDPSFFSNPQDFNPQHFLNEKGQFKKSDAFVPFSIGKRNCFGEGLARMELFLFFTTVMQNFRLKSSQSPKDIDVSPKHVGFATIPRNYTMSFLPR
Conditions: microsomes
Description: The inhibitory potential (IC50 values) of honokiol on CYP activities was evaluated in pooled human liver microsomes using liquid chromatography-tandem mass spectrometry (LC-MS/MS). […] Honokiol was dissolved in acetonitrile. […] After a 3 min preincubation at 37 °C, the reactions were initiated by addition of an NADP generating system and incubated for 15 min at 37 °C in a shaking water bath. The reaction was then stopped by placement of the tubes on ice and adding 100 μL of ice-cold methanol containing internal standards (^13C2, ^15N-acetaminophen for acetaminophen and N-deethylamodiaquine, and d9-1-hydroxybufuralol for 4-hydroxydiclofenac, 4-hydroxybupropion, 7-hydroxycoumarin, 4-hydroxymephenytoin, 1'-hydroxybufuralol, and 1'-hydroxymidazolam). The incubation mixtures were then centrifuged at 13,000 × g for 4 min. All incubations were performed in triplicate, and average values were used. […]
The metabolites formed from the seven CYP cocktail substrates were simultaneously determined according to our previously described LC-MS/MS method with minor modification; the concentration of 4-hydroxybupropion for CYP2B6 activity was quantified separately by LC-MS/MS. […] Quantification was performed by selected reaction monitoring (SRM) of [M+H]^+ ions and the related product ions for each metabolite. […]

- IC50 (μM) of honokiol, no preincubation: No inhibition
- IC50 (μM) of honokiol, with preincubation: No inhibition
SMILES: C=CCc1ccc(O)c(-c2ccc(O)c(CC=C)c2)c1 [honokiol, 2-(4-hydroxy-3-prop-2-enyl-phenyl)-4-prop-2-enyl-phenol]
